Laboratory results as given in article PMC8966651, “PKPD Modeling of the Inoculum Effect of Acinetobacter baumannii on Polymyxin B in vivo” (Frontiers in Pharmacology, 2022).
Counter-ions that a name gives are not always drawn. Like-named read-outs stand apart in the source and are kept apart here. Bridge positions count the residues as written; N and C are the ends. Square brackets hold non-standard residues; d marks the D form. Peptide text beside a SMILES is read from it. * marks the point of attachment. X1 = CC[C@H](C)CCCCC(=O)*; Dab = NCC[C@H](N)C(=O)O

How the values were obtained:
A. baumannii = details: ref Akrong et al., 2021, cited from earlier work; for increase of in vitro IK-HL: starting inoculum from 10^5 to 10^7 CFU/ml
Text: High bacterial counts may alter antibiotherapy success due to an inoculum effect (IE) ([Chastre and Fagon, 2002]; [Koenig and Truwit, 2006]; [Kalanuria et al., 2014]), corresponding to a reduction of the antibiotic activity as bacterial count increases ([Harada et al., 2014]; [Lenhard and Bulman, 2019]). This phenomenon has been described in vitro for ß-lactam antibiotics used against ß-lactamases-producing bacteria such as Escherichia coli and Klebsiella pneumoniae ([Bedenić et al., 2001]; [Harada et al., 2014]; [Smith and Kirby, 2018]; [Lenhard and Bulman, 2019]). It has also been reported i ... || An innovative aspect of this study was the refinement of a PKPD model, based on the model developed after in vitro TK experiments conducted with A. baumannii and PMB ([Akrong et al., 2021]). […] The different growth behavior between in vitro and in vivo has been associated in literature ... || In both in vitro and in vivo PKPD models, a decrease in PMB killing effect was related to the baseline inoculum and was modeled either as a decrease of the in vivo PMB killing rate constant (kslope) or as an increase of the in vitro half-maximal effective concentration of PMB (EC50), making PMB IE difficult to compare between in vitro and in vivo. In vivo IK-HL were derived from Equation 5 for each starting inoculum and various PMB concentrations to better illustrate the consequences of IE on PMB activity (Table 3).

A. baumannii (CS01) = experiment: Neutropenic mouse thigh infection model, bacterial counts after PMB; format: in vivo, Acinetobacter baumannii
Experimental: A clinical strain of A. baumannii (CS01), isolated from a patient with a meningitis (Seville, Spain) before treatment with CST, was used during this study ([López-Rojas et al., 2013]). Before each experiment, the strain was cultured in 5 ml of cation adjusted Muller-Hinton broth II (MHB) (Biomérieux, Marcy-l’Etoile, France) and incubated overnight at 37 ± 2°C with constant shaking (150–170 rpm). This overnight suspension was diluted 1:50 in MHB and was incubated with constant shaking at 35°C during 2 h until an OD600nm of 0.26 was achieved (Ultrospec10, Biochrom Ltd., Cambridge, United Kingdom), corresponding to a bacterial count of 10^8 CFU/ml in exponential growth phase. The bacterial suspension was centrifuged (3,000 rpm, 6 min), broth was removed and replaced by the same volume of sterile saline solution. This suspension was then diluted to obtain inocula of 10^7 and 10^6 CFU/ml. Samples of the inoculation solutions were serially diluted on saline, plated on Muller-Hinton agar plates (Biomérieux, Marcy-l’Etoile, France) and incubated overnight at 37°C.
Animal experiments were carried out according to the EC Directive 2010/63/EU. They were approved by the local ethics committee (COMETHEA) and registered by the French Ministry of Higher Education and Research (approval numbers: 2019022216097190 and 2017072415099072). Five-week-old male Swiss RjOrl mice (n = 296) weighing 34 ± 2 g (mean ± standard deviation [SD]) were obtained from Janvier Labs (Saint-Berthevin, France). All animals were acclimatized in ventilated racks in a temperature-regulated environment with a 12 h light-dark cycle, with free access to food and water for a minimum of 5 days before the beginning of the experiment. Neutropenia was induced by intraperitoneal administrations of cyclophosphamide at 150 and 100 mg/kg, 4 days and 1 day prior to experimental infection, respectively ([Landersdorfer et al., 2018]). Thigh infection was induced by intramuscular administration of 0.1 ml of a bacterial suspension of 10^6, 10^7 or 10^8 CFU/ml (corresponding to 10^5, 10^6 and 10^7 CFU/thigh, respectively), into one of the posterior thigh muscles. Thus, three groups of mice were distinguished according to the inoculum injected (n = 76, 146 and 74 for 10^5, 10^6 and 10^7 CFU/thigh, respectively) Each group was divided into two subgroups: treated (n = 48, 116 and 45 for 10^5, 10^6 and 10^7 CFU/thigh, respectively) and control mice (n = 28, 30 and 29 for 10^5, 10^6 and 10^7 CFU/thigh, respectively).
Two hours after bacterial inoculation, mice received either a single subcutaneous administration of PMB (1, 15 or 40 mg/kg for mice infected with 10^6 and 10^7 CFU/thigh, and 15 or 40 mg/kg for mice infected with 10^5 CFU/thigh), or a subcutaneous administration of saline solution (control group).
Mice (n = 240) were sacrificed at 6 different time points: just prior to the start of the therapy (0 h) and at 2, 4, 6, 8 and 24 h after PMB administration. A total of 3-6 mice were sacrificed at each time point. Thigh muscles were collected and homogenized with 1 ml of sterile saline solution using potters Elvehjem-type tissue grinders (Thermo Fischer Scientific, Illkirch-Graffenstaden, France). Homogenates were serially diluted in saline, plated on Muller-Hinton agar plates and incubated overnight at 37°C. Bacterial colonies were counted and expressed as log10 numbers of CFU/thigh. The lower limit of quantification (LOQ) was set to 800 CFU/ml corresponding to 2.9 log10 CFU/thigh.

## CC[C@H](C)CCCCC(=O)N[C@@H](CCN)C(=O)N[C@H](C(=O)N[C@@H](CCN)C(=O)N[C@H]1CCNC(=O)[C@H]([C@@H](C)O)NC(=O)[C@H](CCN)NC(=O)[C@H](CCN)NC(=O)[C@H](CC(C)C)NC(=O)[C@@H](Cc2ccccc2)NC(=O)[C@H](CCN)NC1=O)[C@@H](C)O [PMB, Polymyxin B sulfate] (X1-[Dab]T[Dab][Dab][Dab][dF]L[Dab][Dab]T; lactam 4-C)
A. baumannii; PMB 0.25 mg/L, starting inoculum 10^5 CFU/ml
  in vitro IK-HL: 10 min
A. baumannii; PMB 0.25 mg/L, starting inoculum 10^7 CFU/ml
  in vitro IK-HL: 24 min
A. baumannii; PMB 0.25 mg/L
  increase of in vitro IK-HL: 140%
A. baumannii; PMB 4 mg/L, starting inoculum 10^5 CFU/ml
  in vitro IK-HL: 5 min
A. baumannii; PMB 4 mg/L, starting inoculum 10^7 CFU/ml
  in vitro IK-HL: 8 min
A. baumannii; PMB 4 mg/L
  increase of in vitro IK-HL: 60%
A. baumannii; initial inoculum increased from 10^5 to 10^8 CFU/ml, static time-kill
  increase of the PMB concentration to reach 50% of maximal effect (EC50): 17 fold
A. baumannii (CS01); 15 mg/kg SC, two highest inocula (10^6 and 10^7 CFU/thigh)
  efficacy of PMB: moderate efficacy
A. baumannii (CS01); 24 h after 15 mg/kg PMB SC, inoculum 10^5 CFU/thigh
  bacterial load reduction: 2.6 ± 1.2 log10 CFU/thigh
A. baumannii (CS01); 24 h after 40 mg/kg PMB SC, inoculum 10^5 CFU/thigh
  bacterial load reduction: 2.5 ± 2.3 log10 CFU/thigh
A. baumannii (CS01); 24 h after 40 mg/kg PMB SC, inoculum 10^6 CFU/thigh
  bacterial load reduction: 3.5 ± 0.9 log10 CFU/thigh
A. baumannii (CS01); 24 h after 40 mg/kg PMB SC, inoculum 10^7 CFU/thigh
  bacterial load reduction: 2.1 ± 1.4 log10 CFU/thigh
A. baumannii (CS01); PMB 1 mg/kg single SC dose, data not shown
  bacterial counts compared with control group: no differences in bacterial counts with the control group
